Laboratory results published in patent publication US20260183392A1, “METHODS AND KITS FOR DNA EDITING AND TREATING, AMELIORATING AND/OR PREVENTING CANCER” (FC IP Holdings, LLC, priority 2022, published 2026).

What was measured:
[1] = tested on: TRAC locus in primary T cells; assay: Anti-CD19xCD22 CAR knock-in at TRAC locus in primary T cells (Protein L, flow cytometry); type: cell-based, human; details: 2 μg of cssDNA plus 1 μM M-3814; Day 7
From the text: FIGS. 7A-7I: CAR-T cell engineering with cssDNA, in accordance with some embodiments. FIG. 7A: Schematic diagram of nonviral CAR-T cell engineering process. Pan T cells are isolated from peripheral blood and activated on day 0 with anti-CD3/anti-CD28 TransAct. Cells are electroporated using the Lonza nucleofector on day 2 with Cas9 RNPs+cssDNA HDR donor templates and then expanded for a total of 7-10 days. FIG. 7B: Representative day 7 flow cytometry graphs showing CAR knock-in for Mock (un-engineered) and cssDNA-engineered T cells with DMSO or 1 μM M-3814 treatments. FIG. 7C: Representative day 7 flow plots and quantifications of CAR knock-in for mock (un-engineered), cssDNA- or AAV6-engineered T cells. Cells were treated with 1 μM M-3814 for 1 day immediately after electroporation. FIG. 7D: Expansion ability of engineered CAR-T cells. FIG. 7E: In vitro killing of NALM6 acute lymphoblastic leukemia cell line with cssDNA-, AAV6-engineered CAR-T cells in comparison to unmodified T cells from same blood donors after 24 hours of co-culture. The in vitro killing measured by live cell imaging using IncuCyte® live cell imaging system. […] FIG. 7G: the data of FIG. 7F, expressed as a bar chart. […] I. FIG. 7I, Tumor burden shown as bioluminescent signal quantified per animal every week over a 21-day period. n=5 mice per group. […]

[2] = tested on: iPSC; assay: Cell viability / cell health of engineered iPSC; type: cell-based
From the text: FIGS. 3A-3H: induced pluripotent stem cells (iPSC) engineering according to some embodiments. FIG. 3A: GFP knock-in efficiency (on Day 7) at RAB11A locus in iPSC using cssDNA or dsDNA as donor templates. FIG. 3B: Cell viability of cssDNA- and dsDNA-engineered iPSC as measured on Day 3. FIG. 3C: Does-dependent GFP reporter knock-in using GFP reporter cssDNA targeting RAB11A or B2M locus. FIG. 3D: GFP fluorescence and phase contrast imaging of representative engineered iPSC colony. FIG. 3E: Schematic diagram of cssDNA donor templates for multiplexed reporter gene knock-in at RAB11A and B2M loci. FIG. 3F: Dual knock-in of mCherry and GFP report genes at the same RAB11A locus. FIG. 3G: Dual knock-in of mCherry and GFP report genes at RAB11A locus and B2M locus, respectively. […] GFP knock-in efficiency was assessed on Day 7 post electroporation by flow cytometry. […]
The present study next evaluated small-molecule inhibitors that have been reported to enhance knock-in efficiency, including the DNA-dependent protein kinase (DNA-PK) inhibitor M-3814 and “Alt-R HDR enhancer 2” (HDRe.v2), which is described as a nonhomologous end joining (NHEJ) inhibitor (Kath et al., Mol Ther Methods Clin Dev. 2022 April 12:25:311-330; Shy et al., Nat Biotechnol. 2023 April; 41 (4): 521-531; and Tatiossian et al., Mol Ther. 2021 Mar. 3; 29 (3): 1057-1069). […]

[3] = tested on: RAB11A locus and TRAC locus in human primary T cells; assay: GFP reporter knock-in at RAB11A or TRAC locus in human primary T cells; type: cell-based; details: 1 μM for 24 hours vs DMSO; cssDNA donors; Day 7
Experimental: FIGS. 5A-5D: Innate immune response in primary T cells, in accordance with some embodiments. FIG. 5A: Schematic diagram of the GFP reporter cssDNA targeting RAB11A locus and TRAC locus (Upper). GFP reporter knock-in efficiency with cssDNA donor templates in human primary T cells. Immediately after electroporation, cells were treated with either DMSO or 1 μM M-3814 for 24 hours. The knock-in efficiency was examined on Day 7 post electroporation. FIG. 5B. Secreted IFN-γ and TNF-α cytokines levels in cultured primary T medium after electroporation with buffer, dsDNA, cssDNA or mRNA molecules. Conditioned media were collected for cytokine analysis using the Ella immunoassay platform with selected panels. FIGS. 5C-5D: Gene set enrichment analysis (GSEA) enrichment analysis of interferon gamma response genes on the differential expression genes (DEG) of from the dsDNA or cssDNA treated primary T cells. […]
Genetically engineered T cell immunotherapies have provided remarkable clinical success to treat B cell acute lymphoblastic leukemia and have the potential to provide therapeutic benefit for numerous other cancers, infectious diseases, and autoimmunity. […] Primary T cells were co-electroplated with respective RNPs, and knock-in efficiency was determined on Day 7 post electroporation by GFP^+ cell percentage using flow cytometry. […]

[4] = tested on: human B2M locus; assay: Screen of crRNA for Cpf1 at human B2M locus (cleavage efficiency)

| Compound | knock-in efficiency (percentage of CAR+ cells) [1] [%] | live cell counts ([2]; at the chosen concentrations) | reduction in cell viability ([2]; higher doses, day 4 post-electroporation) | increase of knock-in efficiency [3] | cleavage efficiency [4] |
| --- | --- | --- | --- | --- | --- |
| COc1ccc([C@@H](O)c2cc(-c3ncnc4cc(N5CCOCC5)ccc34)c(F)cc2Cl)nn1 [M-3814] | 56.3 | generally unaffected | roughly 38% | 60-150% | – |
| Cpf1-crRNA: crRNA for Cpf1 at human B2M locus identified by screening (guide AGUGGGGGUGAAUUCAGUGU; chemistry not fully specified) | – | – | – | – | over 95% |
